This is an account of results in patent US20150290357A1, “ANTIMICROBIAL ADHESIVE” (GeneJet Biotech, Inc., priority 2014, published 2015).

This assay relates to staphylococcus aureus. Kind of assay: Antimicrobial inhibition zone test based on ATCC6538p. In kind it is cell-based. The method, then:
The antimicrobial adhesive prepared by the foregoing method is placed in a 7 ml glass vial and it is used to perform stability test for Ag/PP particulates, polymerization test for the cyanoacrylate monomers (as shown in Table 1), antimicrobial test for staphylococcus aureus (as shown in Table 2) and antimicrobial test for escherichia coli (as shown in Table 3).

As to `C=C(C#N)C(=O)OC(C)CCCCCC` (centres unmarked) [Experiment C, 2-octyl cyanoacrylate], the “Increased in the diameter of inhibition zone (%) (compared to Control)” value (compared to Control (filter paper)) came out at 16.4%. Besides, under “on filter paper, ATCC6538p”, the “Diameter of inhibition zone” value is recorded as 0.93 cm.
